Data: patent US5134137A, “Cephalosporin antibiotics” (The Upjohn Company, priority 1990, dated 1992)
Values after ≈ are worked out from the molar mass of the structure shown. Like-named read-outs stand apart in the source and are kept apart here.

Tests used:
Assay type in all cases: cell-based
Streptococcus bovis = assay: MIC, agar dilution, Streptococcus bovis; details: Streptococcus equinus; strain UC6281; read-out: MIC
Experimental: (§1) Stock solution of each test antibiotic compound were prepared to have a concentration of 2 mg. of the test compound per milliliter in sterile water of 0.1M ammonium acetate solution. The amount of each compound used was adjusted for base compound activity as calculated from the purity data for the selected batch of compound.
(§2) The dilution procedure described by Washington and Sutter [Manual of Clinical Microbiology, 3rd, Edit. (Lennett, E. H. et al, Eds.), pp. 453-458 (1980), American Society for Microbiology, Washington, D.C.] was modified so that serial concentrations of 128 to 0.0625 microgram/ml. in sterile water was obtained. Then 1.5 ml. aliquots of these test antibiotic dilution mixtures are added to 13.5 molten (50° C.) Mueller-Hinton agar. Each resulting mixture is poured into 15×100 mm, sterile Petri plates and allowed to dry at room temperature overnight.
(§3) Test bacterial cultures are maintained at -70° C. on glass beads. [See R. J. Yancey, Jr. et al, Amer. Jr. of Vet. Research, 48, No. 7, pp. 1050-1053, (1987)]. At least one bacteria-laden bead per culture is dropped into one ml. of brain heart infusion (BHI) broth for overnight culture at 37° C. in 5% V/V carbon dioxide in air atmosphere.
(§4) On the data of assay, 2 to 8 drops of the bacterial broth cultures are transferred to fresh BHI broth (1 ml.) and the mixture is incubated for 4 to 6 hours at 37° C. in a 5% V/V carbon dioxide in air atmosphere. The resulting cultures are then diluted to match a 0.5 MacFarland standard and further diluted 1:20 V/V with sterile saline solution.
(§5) A 0.001 ml. drop of the resulting mixture, containing approximately 10^3 to 10^4 colony forming units (CFU) of each test bacteria organism, is dispensed onto the surface of the test antibiotic compound test plates with a Steer's type replicator. The resulting innoculated plates are incubated 16 to 18 hours at 37° C. with a carbon dioxide atmosphere.
(§6) Stock solutions of each test antibiotic compound were prepared to have a concentration of 2 mg. of the test compound per milliliter in sterile water of 0.1M ammonium acetate solution. The amount of each compound used was adjusted for base compound activity as calculated from the purity data for the selected batch of compound.
(§7) The dilution procedure described by Washington and Sutter [Manual of Clinical Microbiology, 3rd, Edit. (Lennett, E. H. et al, Eds.), pp. 453-458 (1980), American Society for Microbiology, Washington, D.C.] was modified so that serial concentrations of 128 to 0.0625 microgram/ml. in sterile water was obtained. Then 1.5 ml. aliquots of these test antibiotic dilution mixtures are added to 13.5 molten (50° C.) Mueller-Hinton agar. Each resulting mixture is poured into 15×100 mm. sterile Petri plates and allowed to dry at room temperature overnight.
(§8) The dilution procedure described by Washington and Sutter [Manual of Clinical Microbiology, 3rd, Edit. (Lennett, E. H. et al, Eds.), pp. 453-458 (1980), American Society for Microbiology. Washington, D.C.] was modified so that serial concentrations of 128 to 0.0625 microgram/ml. in sterile water was obtained. Then 1.5 ml. aliquots of these test antibiotic dilution mixtures are added to 13.5 molten (50° C.) Mueller-Hinton agar. Each resulting mixture is poured into 15×100 mm. sterile Petri plates and allowed to dry at room temperature overnight.
(§9) Test bacterial culture are maintained at -70° C. on glass beads. [See R. J. Yancey, Jr. et al, Amer. Jr. of Vet. Research, 48, No. 7, pp. 1050-1053, (1987)]. At least one bacteria-laden bead per culture is dropped into one ml. of brain heart infusion (BHI) broth for overnight culture at 37° C. in 5% V/V carbon dioxide in air atmosphere.
(§10) On the day of assay, 2 to 8 drops of the bacterial broth cultures are transferred to fresh BHI broth (1 ml.) and the mixture is incubated for 4 to 6 hours at 37° C. in a 5% V/V carbon dioxide in air atmosphere. […]

Pseudomonas aeruginosa = assay: MIC, agar dilution, Pseudomonas aeruginosa; details: Pseudomonas aeruginosa, ATCC27853; strain ATCC 27853; read-out: MIC
Experimental: as §1, §2, §3, §4, §5, §6, §7, §8, §9, §10

[1] = system: Streptococcus dysgalactiae; assay: MIC, agar dilution, Streptococcus dysgalactiae; details: Streptococcus dysgalactiae; strain UC251; read-out: MIC
Experimental: as §1, §2, §3, §4, §5, §6, §7, §8, §9, §10

[2] = system: Bordetella bronchiseptica; assay: MIC, agar dilution, Bordetella bronchiseptica; details: Bordetella bronchiseptica; strain UC6313; read-out: MIC
Experimental: as §1, §2, §3, §4, §5, §6, §7, §8, §9, §10

Enterococcus faecalis = assay: MIC, agar dilution, Enterococcus faecalis; details: Enterococcus faecalis; strain UC694; read-out: MIC
Experimental: as §6, §2, §3, §4, §5, §1, §7, §8, §9, §10

Micrococcus luteus = assay: MIC, agar dilution, Micrococcus luteus; details: Micrococcus luteus; strain UC130; read-out: MIC
Experimental: as §1, §2, §3, §4, §5, §6, §7, §8, §9, §10

Escherichia coli = assay: MIC, agar dilution, Escherichia coli; details: Escherichia coli, read-out: MIC
Experimental: as §1, §2, §3, §4, §5, §6, §7, §8, §9, §10

Pasteurella hemolytica = assay: MIC (minimum inhibitory concentration), agar dilution, Pasteurella hemolytica; details: Pasteurella, read-out: MIC
Experimental: as §1, §2, §3, §4, §5, §6, §7, §8, §9, §10

Enterococcus faecium = assay: MIC, agar dilution, Enterococcus faecium; details: Enterococcus faecium; strain UC241; read-out: MIC
Experimental: as §6, §2, §3, §4, §5, §1, §7, §8, §9, §10

Streptococcus agalactiae = assay: MIC, agar dilution, Streptococcus agalactiae; details: Streptococcus agalactiae, read-out: MIC
Experimental: as §1, §2, §3, §4, §5, §6, §7, §8, §9, §10

Pasteurella multocida = assay: MIC, agar dilution, Pasteurella multocida; details: Pasteurella multocida; strain UC9581; read-out: MIC
Experimental: as §1, §2, §3, §4, §5, §6, §7, §8, §9, §10

Streptococcus suis = assay: MIC, agar dilution, Streptococcus suis; details: Streptococcus suis; strain 650-2; read-out: MIC
Experimental: as §1, §2, §3, §4, §5, §6, §7, §8, §9, §10

Salmonella choleraesuis = assay: MIC, agar dilution, Salmonella choleraesuis; details: Salmonella enterica, read-out: MIC
Experimental: as §1, §2, §3, §4, §5, §6, §7, §8, §9, §10

Staphylococcus aureus = assay: MIC, agar dilution, Staphylococcus aureus; details: Staphylococcus aureus, read-out: MIC
Experimental: as §1, §2, §3, §4, §5, §6, §7, §8, §9, §10

Corynebacterium pyogenes = assay: MIC, agar dilution, Corynebacterium pyogenes; details: strain 213-2; read-out: MIC
Experimental: as §1, §2, §3, §4, §5, §6, §7, §8, §9, §10

Streptococcus uberis = assay: MIC, agar dilution, Streptococcus uberis; details: Streptococcus uberis, read-out: MIC
Experimental: as §1, §2, §3, §4, §5, §6, §7, §8, §9, §10

Salmonella typhimurium = assay: MIC, agar dilution, Salmonella typhimurium; details: Salmonella enterica, read-out: MIC
Experimental: as §1, §2, §3, §4, §5, §6, §7, §8, §9, §10

[3] = CHOLERAESUIS / UC6073, strain UC6073
[4] = CHOLERAESUIS / UC6077, strain UC6077
[5] = TYPHIMURIUM / UC6162, strain UC6162
[6] = TYPHIMURIUM / UC6164, strain UC6164

CO/N=C(\C(=O)N[C@@H]1C(=O)N2C(C(=O)O)=C(CSSC3CCCCC3)CS[C@H]12)c1csc(N)n1 [Example 19]
MIC (Streptococcus bovis): ≤ 0.06 µg/mL | MIC (Pseudomonas aeruginosa): > 32 µg/mL | MIC [1]: ≤ 0.06 µg/mL | MIC [2]: > 32 µg/mL | MIC (Enterococcus faecalis): > 32 µg/mL | MIC (Micrococcus luteus): ≤ 0.06 µg/mL | MIC (Escherichia coli; strain UC3784): 4 µg/mL (≈ 7.36 µM) | MIC (Escherichia coli; strain UC6720): 8 µg/mL (≈ 14.7 µM) | MIC (Escherichia coli; strain UC9670): 4 µg/mL (≈ 7.36 µM) | MIC (Pasteurella hemolytica; strain UC6531): 0.5 µg/mL (≈ 0.92 µM) | MIC (Pasteurella hemolytica; strain UC6532): 0.5 µg/mL (≈ 0.92 µM) | MIC (Pasteurella hemolytica; strain UC9582): 0.25 µg/mL (≈ 0.46 µM) | MIC (Enterococcus faecium): > 32 µg/mL | MIC (Streptococcus agalactiae; strain UC3947): ≤ 0.06 µg/mL | MIC (Streptococcus agalactiae; strain UC6892): ≤ 0.06 µg/mL | MIC (Pasteurella multocida): ≤ 0.06 µg/mL | MIC (Streptococcus suis): ≤ 0.06 µg/mL | MIC (Salmonella choleraesuis; [3]): 8 µg/mL (≈ 14.7 µM) | MIC (Salmonella choleraesuis; [4]): 16 µg/mL (≈ 29.4 µM) | MIC (Staphylococcus aureus; strain UC6093): 1 µg/mL (≈ 1.84 µM) | MIC (Staphylococcus aureus; strain UC6097): 1 µg/mL (≈ 1.84 µM) | MIC (Staphylococcus aureus; strain UC9203): 1 µg/mL (≈ 1.84 µM) | MIC (Corynebacterium pyogenes): 0.5 µg/mL (≈ 0.92 µM) | MIC (Streptococcus uberis; strain UC3946): 0.13 µg/mL (≈ 0.239 µM) | MIC (Streptococcus uberis; strain UC6159): 8 µg/mL (≈ 14.7 µM) | MIC (Salmonella typhimurium; [5]): 16 µg/mL (≈ 29.4 µM) | MIC (Salmonella typhimurium; [6]): 16 µg/mL (≈ 29.4 µM)

CO/N=C(\C(=O)N[C@@H]1C(=O)N2C(C(=O)O)=C(CSSc3ccc(Cl)cc3)CS[C@H]12)c1csc(N)n1 [Example 17]
MIC (Streptococcus bovis): ≤ 0.06 µg/mL | MIC (Pseudomonas aeruginosa): > 32 µg/mL | MIC [1]: ≤ 0.06 µg/mL | MIC [2]: > 32 µg/mL | MIC (Enterococcus faecalis): > 32 µg/mL | MIC (Micrococcus luteus): ≤ 0.06 µg/mL | MIC (Escherichia coli; strain UC3784): 2 µg/mL (≈ 3.5 µM) | MIC (Escherichia coli; strain UC6720): 4 µg/mL (≈ 6.99 µM) | MIC (Escherichia coli; strain UC9670): 8 µg/mL (≈ 14 µM) | MIC (Pasteurella hemolytica; strain UC6531): ≤ 0.06 µg/mL | MIC (Pasteurella hemolytica; strain UC6532): 0.13 µg/mL (≈ 0.227 µM) | MIC (Pasteurella hemolytica; strain UC9582): 0.13 µg/mL (≈ 0.227 µM) | MIC (Enterococcus faecium): > 32 µg/mL | MIC (Streptococcus agalactiae; strain UC3947): ≤ 0.06 µg/mL | MIC (Streptococcus agalactiae; strain UC6892): ≤ 0.06 µg/mL | MIC (Pasteurella multocida): ≤ 0.06 µg/mL | MIC (Streptococcus suis): ≤ 0.06 µg/mL | MIC (Salmonella choleraesuis; [3]): 8 µg/mL (≈ 14 µM) | MIC (Salmonella choleraesuis; [4]): 8 µg/mL (≈ 14 µM) | MIC (Staphylococcus aureus; strain UC6093): 4 µg/mL (≈ 6.99 µM) | MIC (Staphylococcus aureus; strain UC6097): 2 µg/mL (≈ 3.5 µM) | MIC (Staphylococcus aureus; strain UC9203): 2 µg/mL (≈ 3.5 µM) | MIC (Corynebacterium pyogenes): ≤ 0.06 µg/mL | MIC (Streptococcus uberis; strain UC3946): ≤ 0.06 µg/mL | MIC (Streptococcus uberis; strain UC6159): 4 µg/mL (≈ 6.99 µM) | MIC (Salmonella typhimurium; [5]): 4 µg/mL (≈ 6.99 µM) | MIC (Salmonella typhimurium; [6]): 4 µg/mL (≈ 6.99 µM)

CO/N=C(\C(=O)N[C@@H]1C(=O)N2C(C(=O)O)=C(CSSc3ccc([N+](=O)[O-])cc3)CS[C@H]12)c1csc(N)n1 [Example 18]
MIC (Streptococcus bovis): ≤ 0.06 µg/mL | MIC (Pseudomonas aeruginosa): > 32 µg/mL | MIC [1]: ≤ 0.06 µg/mL | MIC [2]: > 32 µg/mL | MIC (Enterococcus faecalis): > 32 µg/mL | MIC (Micrococcus luteus): ≤ 0.06 µg/mL | MIC (Escherichia coli; strain UC3784): 1 µg/mL (≈ 1.72 µM) | MIC (Escherichia coli; strain UC6720): 2 µg/mL (≈ 3.43 µM) | MIC (Escherichia coli; strain UC9670): 1 µg/mL (≈ 1.72 µM) | MIC (Pasteurella hemolytica; strain UC6531): 0.25 µg/mL (≈ 0.429 µM) | MIC (Pasteurella hemolytica; strain UC6532): ≤ 0.06 µg/mL | MIC (Pasteurella hemolytica; strain UC9582): ≤ 0.06 µg/mL | MIC (Enterococcus faecium): > 32 µg/mL | MIC (Streptococcus agalactiae; strain UC3947): ≤ 0.06 µg/mL | MIC (Streptococcus agalactiae; strain UC6892): ≤ 0.06 µg/mL | MIC (Pasteurella multocida): ≤ 0.06 µg/mL | MIC (Streptococcus suis): ≤ 0.06 µg/mL | MIC (Salmonella choleraesuis; [3]): 2 µg/mL (≈ 3.43 µM) | MIC (Salmonella choleraesuis; [4]): 4 µg/mL (≈ 6.86 µM) | MIC (Staphylococcus aureus; strain UC6093): 2 µg/mL (≈ 3.43 µM) | MIC (Staphylococcus aureus; strain UC6097): 2 µg/mL (≈ 3.43 µM) | MIC (Staphylococcus aureus; strain UC9203): 2 µg/mL (≈ 3.43 µM) | MIC (Corynebacterium pyogenes): 0.25 µg/mL (≈ 0.429 µM) | MIC (Streptococcus uberis; strain UC3946): 0.25 µg/mL (≈ 0.429 µM) | MIC (Streptococcus uberis; strain UC6159): 8 µg/mL (≈ 13.7 µM) | MIC (Salmonella typhimurium; [5]): 4 µg/mL (≈ 6.86 µM) | MIC (Salmonella typhimurium; [6]): 2 µg/mL (≈ 3.43 µM)
